These results are taken from publication PMC7876005 (Communications Biology, 2021).

Where a SMILES comes first, the peptide text is derived from it.

One assay deals with T1, Pgk1 (Saccharomyces cerevisiae, UniProt P00560).
T1 sequence (P00560 2-416): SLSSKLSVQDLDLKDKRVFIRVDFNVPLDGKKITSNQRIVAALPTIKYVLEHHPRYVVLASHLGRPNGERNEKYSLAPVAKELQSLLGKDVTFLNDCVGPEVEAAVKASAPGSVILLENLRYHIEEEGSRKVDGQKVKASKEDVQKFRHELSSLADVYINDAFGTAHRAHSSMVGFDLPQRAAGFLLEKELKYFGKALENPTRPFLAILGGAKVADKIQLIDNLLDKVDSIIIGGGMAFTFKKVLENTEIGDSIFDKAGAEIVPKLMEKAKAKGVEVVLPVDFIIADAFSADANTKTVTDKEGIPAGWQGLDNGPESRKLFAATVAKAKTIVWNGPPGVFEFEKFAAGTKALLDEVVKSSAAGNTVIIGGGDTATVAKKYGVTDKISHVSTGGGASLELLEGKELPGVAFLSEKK
The assay can be described thus: microscale thermophoresis. (In MST a laser heats a spot of the sample, and binding alters the fluorescence response.)

The next assay has as its target T2, Pnp1 (Saccharomyces cerevisiae, UniProt Q05788).
T2 construct: recombinant, overexpressed in yeast ORF collection strain (Dharmacon), purified; monomeric mass 33 kDa
T2 sequence (Q05788 2-311): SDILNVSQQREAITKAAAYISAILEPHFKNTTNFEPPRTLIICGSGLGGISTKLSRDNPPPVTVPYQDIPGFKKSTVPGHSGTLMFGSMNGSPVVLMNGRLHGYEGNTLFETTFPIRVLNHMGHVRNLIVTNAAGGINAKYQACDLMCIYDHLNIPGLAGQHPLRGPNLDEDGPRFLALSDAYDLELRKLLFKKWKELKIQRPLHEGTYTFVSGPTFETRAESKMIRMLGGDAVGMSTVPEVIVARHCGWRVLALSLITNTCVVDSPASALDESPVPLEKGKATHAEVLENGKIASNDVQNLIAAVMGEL
The assay can be described thus: LC-MS assay of inosine conversion to hypoxanthine. Format: biochemical.

What is called Kd is a measure of binding affinity in units of concentration. `Nc1ncnc2c1ncn2[C@@H]1O[C@H](COP(=O)(O)OP(=O)(O)OP(=O)(O)O)[C@@H](O)[C@H]1O` [ATP] returned a Kd on Pgk1 of 122 µM. For `CC(C)C[C@H](NC(=O)[C@@H](N)CO)C(=O)O` [Ser-Leu] (H-Ser-Leu-OH), the equilibrium dissociation constant (Kd) at Pgk1 was 416 µM. What is called inhibition is the change of the read-out against control, counted positive when it falls. Low readings indicate a response near the control, high ones a response far below the control. On to `O=c1[nH]c(=O)c2[nH]cnc2[nH]1` [xanthine], for which the inhibition at 100 µM on Pnp1 is below 32%.
